Reference: US20250034089A1, “TETRAHYDROCARBAZOLE COMPOUND, AND PHARMACEUTICAL COMPOSITION AND USE THEREOF” (NAIN BIOTECH (HANGZHOU) CO., LTD., priority 2021, published 2025)

Tested on: Hep3B (human liver cancer cells)
Experiment: In vitro proliferation inhibition (CCK-8), Hep3B
Assay type: cell-based
Conditions: Homo sapiens, test (2), average±standard deviation of three wells
Excerpt: (§1) • 1) Cell sources: HeLa (human cervical cancer cells), CaSki (human cervical cancer intestinal metastasis cells), Huh7 (human liver cancer cells), HepG2 (human liver cancer cells), Hep3B (human liver cancer cells) were purchased from the Chinese Academy of Sciences cell bank (Shanghai); LO2 (human normal liver cells) and HcerEpic (human normal uterine epithelial cells) were from ATCC. • 2) Cell culture and passage: The cell culture and passage method is the same as that described in “The inhibitory effect of compounds on the OCT4 protein in tumor stem cells (CSC)”. • 3) Cell dosing treatment: The each type of cells mentioned above was digested, counted, and inoculated in each well of the 96 well cell culture plate (#3988, Corning) at a density of 5000 cells/200 μl culture medium. They were cultured in a cell culture incubator at 37° C. and 5% CO2 for 24 hours to allow the cells to fully adherent to the wall. Then, the original culture medium was replaced with complete culture medium containing gradient diluted KZT-A5 (each concentration with 3 repeated wells) as well as DMSO (#D5879, Sigma Aldrich) solvent control, and they are cultured for additional 72 hours. • 4) Pharmacodynamic test and statistics: First, the morphology of cells treated with the above compounds was observed, photographed and recorded using an inverted phase contrast microscope (X71, Olympus). Then the original culture medium was replaced with phenol red free culture medium containing CCK-8 detection reagent (#E606335, Shanghai Shenggong) respectively, and they are cultured in the incubator for additional 2 hours. Then the OD450 nm absorbance value (OD value) was measured on a multifunctional enzyme-linked immunosorbent assay (168-1130, Bio Rad). After the cells were treated with the test compound, the equations for calculating the cell survival rate or cell growth rate is: survival rate=GD value of the treated group/OD value of the control group×100%; the equations for calculating the growth inhibition rate of compounds on cell proliferation is: inhibition rate=(OD value of control group−OD value of the treated group)/OD value of control group×100%. Further, the IC50 of each compound was calculated in SPSS based on the inhibition rate. […]

IC50	Compound
18 ± 1.2 µM	CCC(CO)/N=C1\CCCc2c1[nH]c1ccc(C)cc21 (stereo not drawn) [AH057, reference compound]

Tested on: LO2 (human normal liver cells)
Experiment: In vitro proliferation inhibition (CCK-8), LO2
Assay type: cell-based
Conditions: LO2, test (2), average±standard deviation of three wells
Excerpt: • 1) Cell sources: HeLa (human cervical cancer cells), CaSki (human cervical cancer intestinal metastasis cells), Huh7 (human liver cancer cells), HepG2 (human liver cancer cells), Hep3B (human liver cancer cells) were purchased from the Chinese Academy of Sciences cell bank (Shanghai); LO2 (human normal liver cells) and HcerEpic (human normal uterine epithelial cells) were from ATCC. • 2) Cell culture and passage: The cell culture and passage method is the same as that described in “The inhibitory effect of compounds on the OCT4 protein in tumor stem cells (CSC)”. • 3) Cell dosing treatment: The each type of cells mentioned above was digested, counted, and inoculated in each well of the 96 well cell culture plate (#3988, Corning) at a density of 5000 cells/200 μl culture medium. They were cultured in a cell culture incubator at 37° C. and 5% CO2 for 24 hours to allow the cells to fully adherent to the wall. Then, the original culture medium was replaced with complete culture medium containing gradient diluted KZT-A5 (each concentration with 3 repeated wells) as well as DMSO (#D5879, Sigma Aldrich) solvent control, and they are cultured for additional 72 hours. • 4) Pharmacodynamic test and statistics: First, the morphology of cells treated with the above compounds was observed, photographed and recorded using an inverted phase contrast microscope (X71, Olympus). Then the original culture medium was replaced with phenol red free culture medium containing CCK-8 detection reagent (#E606335, Shanghai Shenggong) respectively, and they are cultured in the incubator for additional 2 hours. Then the OD450 nm absorbance value (OD value) was measured on a multifunctional enzyme-linked immunosorbent assay (168-1130, Bio Rad). […] Further, the IC50 of each compound was calculated in SPSS based on the inhibition rate. […]

Compound	IC50
CCC(CO)/N=C1\CCCc2c1[nH]c1ccc(C)cc21 (stereo not drawn) [AH057, reference compound]	85.5 ± 2.92 µM

Tested on: HeLa cells
Experiment: Clone formation of HeLa cells, single drugs and combination
Assay type: cell-based, human
Conditions: 700 nM KZT-A5, 100 nM SGI-1027, two weeks, compared with DMSO control, FIG. 7
Excerpt: • 1) Cell source: HeLa cells were purchased from the Chinese Academy of Sciences Cell Bank (Shanghai). • 2) Cell culture and passage: The cell culture and passage method is the same as that described in “Inhibition of OCT4 protein in tumor stem cells (CSCs) by compounds”. • 3) Cell dosing treatment: The cells were inoculated into a 6-well plate containing the aforementioned culture medium at a density of 200 cells per well. They were divided into four groups, and DMSO (as blank control group), 700 nM KZT-A5 (as KZT-A5 single drug group), 100 nM SGI-1027 (as SGI-1027 single drug group), and 700 nM KZT-A5+100 nM SGI-1027 (as combination group) was added respectively. After two weeks, they were photographed, and the number of clones was counted in each group respectively.

Compound	inhibition of clone formation
Cc1cc(Nc2ccc(NC(=O)c3ccc(Nc4ccnc5ccccc45)cc3)cc2)nc(N)n1 [SGI-1027, reference compound]	only slightly inhibits clone formation

Tested on: HepG2 (human liver cancer cells)
Experiment: In vitro proliferation inhibition (CCK-8), HepG2
Assay type: cell-based
Conditions: Homo sapiens; HepG2, test (2), average±standard deviation of three wells
Excerpt: as §1

IC50	Compound
40.02 ± 0.08 µM	CCC(CO)/N=C1\CCCc2c1[nH]c1ccc(C)cc21 (stereo not drawn) [AH057, reference compound]

Tested on: HeLa (human cervical cancer cells)
Experiment: In vitro proliferation inhibition (CCK-8), HeLa
Assay type: cell-based
Conditions: Homo sapiens, 72 h, CCK-8, average of three wells in one test
Excerpt: (§2) • 1) Cell sources: HeLa (human cervical cancer cells), CaSki (human cervical cancer intestinal metastasis cells), Huh7 (human liver cancer cells), HepG2 (human liver cancer cells), Hep3B (human liver cancer cells) were purchased from the Chinese Academy of Sciences cell bank (Shanghai); LO2 (human normal liver cells) and HcerEpic (human normal uterine epithelial cells) were from ATCC. • 2) Cell culture and passage: The cell culture and passage method is the same as that described in “The inhibitory effect of compounds on the OCT4 protein in tumor stem cells (CSC)”. • 3) Cell dosing treatment: The each type of cells mentioned above was digested, counted, and inoculated in each well of the 96 well cell culture plate (#3988, Corning) at a density of 5000 cells/200 μl culture medium. They were cultured in a cell culture incubator at 37° C. and 5% CO2 for 24 hours to allow the cells to fully adherent to the wall. Then, the original culture medium was replaced with complete culture medium containing gradient diluted KZT-A5 (each concentration with 3 repeated wells) as well as DMSO (#D5879, Sigma Aldrich) solvent control, and they are cultured for additional 72 hours. • 4) Pharmacodynamic test and statistics: First, the morphology of cells treated with the above compounds was observed, photographed and recorded using an inverted phase contrast microscope (X71, Olympus). Then the original culture medium was replaced with phenol red free culture medium containing CCK-8 detection reagent (#E606335, Shanghai Shenggong) respectively, and they are cultured in the incubator for additional 2 hours. Then the OD450 nm absorbance value (OD value) was measured on a multifunctional enzyme-linked immunosorbent assay (168-1130, Bio Rad). After the cells were treated with the test compound, the equations for calculating the cell survival rate or cell growth rate is: survival rate=GD value of the treated group/OD value of the control group×100%; the equations for calculating the growth inhibition rate of compounds on cell proliferation is: inhibition rate=(OD value of control group−OD value of the treated group)/OD value of control group×100%. Further, the IC50 of each compound was calculated in SPSS based on the inhibition rate.
(§3) • 1) Cell sources: Huh7 (human liver cancer cells), HepG2 (human liver cancer cells), Hep3B (human liver cancer cells), and HeLa (human cervical cancer cells) were all purchased from the Chinese Academy of Sciences cell bank (Shanghai), while LO2 (human normal liver cells) was obtained from ATCC. • 2) Cell culture and passage: The cell culture and passage method is the same as that described in “The inhibitory effect of compounds on human tumor cell lines from different tissue sources (1)”. • 3) Cell dosing treatment: The cell dosing treatment method is the same as that described in “The inhibitory effect of compounds on human tumor cell lines from different tissue sources (1). • 4) Pharmacodynamic test and statistics: The pharmacodynamic test and statistics method is the same as that described in “The inhibitory effect of compounds on human tumor cell lines from different tissue sources (1)”. The IC50 value data of the compound on each type of tumor cells is the average±standard deviation of three wells in one test.

IC50	Compound
< 50 µM	COc1cc(/C=C2\CCc3c([nH]c4ccc(-c5cn[nH]c5)cc34)C2=O)ccc1O [Compound 24]
< 50 µM	Cc1ccc2[nH]c3c(c2c1)CC/C(=C\c1ccnc2[nH]ccc12)C3=O [Compound 16]
< 50 µM	COc1cc(/C=C2\CCc3c([nH]c4c(Cl)cc(Cl)cc34)C2=O)ccc1O [Compound 32]
< 50 µM	C#Cc1ccc2[nH]c3c(c2c1)CC/C(=C\c1ccc(O)c(OC)c1)C3=O [Compound 25]
< 50 µM	Cc1ccc2[nH]c3c(c2c1)CC/C(=C\c1c[nH]c2ncccc12)C3=O [Compound 14]
< 50 µM	COc1cc(CC2CCc3c([nH]c4ccc(C)cc34)C2=O)ccc1O (stereo not drawn) [Compound 8]
< 50 µM	COc1ccc2[nH]c3c(c2n1)CC/C(=C\c1ccc(O)c(OC)c1)C3=O [Compound 33]
< 50 µM	COc1cc(/C=C2\CCc3c([nH]c4cc(OC)c(OC)cc34)C2=O)ccc1O [Compound 31]
< 50 µM	COc1cc(/C=C2\CCc3c([nH]c4ccc(Br)cc34)C2=O)ccc1O [Compound 19]
< 50 µM	COc1cc(/C=C2\CCc3c([nH]c4ccc(F)cc34)C2=O)ccc1O [Compound 27]
< 50 µM	COc1cc(/C=C2\CCc3c([nH]c4ccc(C#N)cc34)C2=O)ccc1O [Compound 20]
< 50 µM	COc1cc(/C=C2\CCc3c([nH]c4ccc(N5CCNCC5)cc34)C2=O)ccc1O [Compound 23]
< 50 µM	COC(=O)c1ccc2[nH]c3c(c2c1)CC/C(=C\c1ccc(O)c(OC)c1)C3=O [Compound 21]
< 50 µM	COC(=O)c1ccc2[nH]c3c(c2n1)CC/C(=C\c1ccc(O)c(OC)c1)C3=O [Compound 28]
< 50 µM	COc1cc(/C=C2\CCc3c([nH]c4ccc(N5CCC(O)CC5)cc34)C2=O)ccc1O [Compound 22]

Same assay, conditions: Homo sapiens, 72 hours, CCK-8, average of three wells in one test

Compound	IC50
COc1cc(/C=C2\CCCc3c([nH]c4ccc(C)cc34)C2=O)ccc1O [Compound 37]	< 50 µM
COc1cc(/C=C2\CSc3c([nH]c4ccc(C)cc34)C2=O)ccc1O [Compound 36]	< 50 µM
COc1cc(/C=C2\CCc3c([nH]c4ccc(C)cc34)C2=O)cc(OC)c1OC [Compound 38]	< 50 µM
COc1cc(/C=C2\Cc3c([nH]c4ccc(C)cc34)C2=O)ccc1O [Compound 35]	< 50 µM
COc1ccc2[nH]c3c(c2c1)CC/C(=C\c1ccc(O)c(OC)c1)C3=O [Compound 18]	< 50 µM
COc1cc(/C=C2\CC(C)(C)c3c([nH]c4ccc(C)cc34)C2=O)ccc1O [Compound 34]	< 50 µM

Same assay, conditions: Homo sapiens, test (2), average±standard deviation of three wells

IC50	Compound
0.63 ± 0.03 µM	CCC(CO)/N=C1\CCCc2c1[nH]c1ccc(C)cc21 (stereo not drawn) [AH057, reference compound]

Tested on: Huh7 (human liver cancer cells)
Experiment: In vitro proliferation inhibition (CCK-8), Huh7
Assay type: cell-based
Conditions: Homo sapiens, Huh-7, Huh7, test (2), average±standard deviation of three wells
Excerpt: as §2, §3

IC50	Compound
44.2 ± 1.61 µM	CCC(CO)/N=C1\CCCc2c1[nH]c1ccc(C)cc21 (stereo not drawn) [AH057, reference compound]
